{"source": "patent US20040024317A1", "about": "“Method for assessing capillary permeability” (priority 2002, published 2004)", "test": "Persistence length by light scattering", "type": "physicochemical", "conditions": "little or no substitution; folded polypeptide", "text": "An elongated, worm-like conformation of a macromolecule results in greater uptake than other conformations, such as folded, or globular conformations. Conformation may be measured by a persistence length of the molecule. This may be determined by light scattering.\nThe conformation attained by the present polymeric contrast agents is that of a worm-like shape being essentially a stretched out, extended chain with little folding. A measure of the “straightness” of a molecule is a persistence length. Persistence length is related to a radius of gyration, measured by light scattering experiments. A folded polypeptide such as poly-L-lysine (PLL) with little or no substitution, has a low persistence length of about 10 Angstroms (Å), and is not suitable for diagnosing sepsis. Therefore, the present polymeric contrast agents preferably have a persistence lengths of 100-600 Å.", "data": [{"substance": "poly-L-lysine [poly-L-lysine (PLL)]", "values": [{"measurement": "persistence length", "result": "about 10 Angstroms (Å)"}]}]}
